From ChEMBL document CHEMBL5291721, “A preclinical secondary pharmacology resource illuminates target-adverse drug reaction associations of marketed drugs” (Nat Commun, 2023)

Tests used:
[1] = molecular target: Beta-1 adrenergic receptor (Homo sapiens, UniProt P08588); type: functional
[2] = molecular target: Glutamate receptor ionotropic, NMDA 1 (Rattus norvegicus, UniProt P35439)
Melanocortin receptor 4 = Melanocortin receptor 4 (Homo sapiens, UniProt P32245)
[3] = molecular target: Gamma-aminobutyric acid receptor subunit alpha-1 (Rattus norvegicus, UniProt P62813); type: functional
[4] = molecular target: T1, Cholecystokinin receptor type A (Homo sapiens, UniProt P32238)
T1 sequence (P32238 whole entry): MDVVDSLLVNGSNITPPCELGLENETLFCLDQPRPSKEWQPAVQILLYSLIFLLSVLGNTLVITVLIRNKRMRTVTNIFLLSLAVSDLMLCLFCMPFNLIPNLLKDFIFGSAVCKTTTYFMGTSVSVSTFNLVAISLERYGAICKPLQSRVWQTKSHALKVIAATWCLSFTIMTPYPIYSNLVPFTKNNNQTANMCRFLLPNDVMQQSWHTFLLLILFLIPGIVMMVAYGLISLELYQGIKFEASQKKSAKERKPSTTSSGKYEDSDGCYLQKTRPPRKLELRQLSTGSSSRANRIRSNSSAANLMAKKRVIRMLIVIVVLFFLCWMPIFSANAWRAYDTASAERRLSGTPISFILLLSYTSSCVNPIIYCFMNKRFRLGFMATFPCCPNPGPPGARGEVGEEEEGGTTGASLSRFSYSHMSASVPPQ

Adenosine receptor A3 = molecular target: T2, Adenosine receptor A3 (Homo sapiens, UniProt P0DMS8)
T2 sequence (P0DMS8 whole entry): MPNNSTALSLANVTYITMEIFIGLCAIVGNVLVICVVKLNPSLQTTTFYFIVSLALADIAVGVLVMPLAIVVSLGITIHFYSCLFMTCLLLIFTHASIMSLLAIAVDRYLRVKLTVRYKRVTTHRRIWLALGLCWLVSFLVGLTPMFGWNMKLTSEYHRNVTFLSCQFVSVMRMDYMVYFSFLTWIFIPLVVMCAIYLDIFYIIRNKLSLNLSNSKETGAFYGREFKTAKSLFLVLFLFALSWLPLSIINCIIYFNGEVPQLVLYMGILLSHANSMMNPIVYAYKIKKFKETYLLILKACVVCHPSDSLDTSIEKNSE

Vasopressin V1a receptor = Vasopressin V1a receptor (Homo sapiens, UniProt P37288)
Adenosine receptor A1 = molecular target: T3, Adenosine receptor A1 (Homo sapiens, UniProt P30542)
T3 sequence (P30542 whole entry): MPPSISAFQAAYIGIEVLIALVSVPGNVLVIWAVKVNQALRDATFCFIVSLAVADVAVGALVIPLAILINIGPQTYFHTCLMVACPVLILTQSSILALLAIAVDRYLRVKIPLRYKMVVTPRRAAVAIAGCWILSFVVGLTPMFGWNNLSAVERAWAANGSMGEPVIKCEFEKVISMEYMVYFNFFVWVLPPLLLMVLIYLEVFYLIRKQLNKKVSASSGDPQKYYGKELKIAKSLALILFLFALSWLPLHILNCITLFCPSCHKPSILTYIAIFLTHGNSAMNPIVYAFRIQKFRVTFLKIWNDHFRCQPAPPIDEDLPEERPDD

[5] = molecular target: T4, Alpha-1A adrenergic receptor (Homo sapiens, UniProt P35348)
T4 sequence (P35348 whole entry): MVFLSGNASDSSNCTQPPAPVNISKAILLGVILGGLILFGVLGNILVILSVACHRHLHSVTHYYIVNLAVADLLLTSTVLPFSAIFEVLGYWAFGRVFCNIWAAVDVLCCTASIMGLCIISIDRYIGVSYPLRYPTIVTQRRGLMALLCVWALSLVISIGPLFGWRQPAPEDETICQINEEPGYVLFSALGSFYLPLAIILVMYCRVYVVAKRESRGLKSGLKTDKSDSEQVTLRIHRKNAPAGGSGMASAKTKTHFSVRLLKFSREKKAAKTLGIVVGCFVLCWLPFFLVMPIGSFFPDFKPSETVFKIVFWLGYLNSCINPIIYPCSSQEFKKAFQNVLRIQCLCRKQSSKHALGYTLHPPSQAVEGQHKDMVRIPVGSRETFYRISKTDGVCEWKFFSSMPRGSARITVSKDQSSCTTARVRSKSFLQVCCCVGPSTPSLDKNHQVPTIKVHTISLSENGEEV

Cannabinoid receptor 1 = Cannabinoid receptor 1 (Homo sapiens, UniProt P21554)
Mu-type opioid receptor = Mu-type opioid receptor (Homo sapiens, UniProt P35372)
Further: assay procedure not described here.

Cannabinoid receptor 1, sequence (P21554 whole entry): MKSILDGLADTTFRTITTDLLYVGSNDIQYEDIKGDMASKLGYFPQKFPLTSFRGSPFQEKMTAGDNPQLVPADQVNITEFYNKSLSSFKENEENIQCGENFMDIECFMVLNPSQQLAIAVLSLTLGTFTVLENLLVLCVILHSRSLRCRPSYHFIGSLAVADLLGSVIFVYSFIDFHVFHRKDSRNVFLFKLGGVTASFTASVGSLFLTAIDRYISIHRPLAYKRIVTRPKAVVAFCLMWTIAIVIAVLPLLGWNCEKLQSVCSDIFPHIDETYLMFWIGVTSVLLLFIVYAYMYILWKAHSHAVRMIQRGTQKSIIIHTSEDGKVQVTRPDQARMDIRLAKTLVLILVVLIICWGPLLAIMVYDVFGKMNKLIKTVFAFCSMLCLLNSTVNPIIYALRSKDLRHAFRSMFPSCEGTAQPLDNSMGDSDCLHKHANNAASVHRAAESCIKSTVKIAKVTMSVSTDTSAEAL
Vasopressin V1a receptor, sequence (P37288 whole entry): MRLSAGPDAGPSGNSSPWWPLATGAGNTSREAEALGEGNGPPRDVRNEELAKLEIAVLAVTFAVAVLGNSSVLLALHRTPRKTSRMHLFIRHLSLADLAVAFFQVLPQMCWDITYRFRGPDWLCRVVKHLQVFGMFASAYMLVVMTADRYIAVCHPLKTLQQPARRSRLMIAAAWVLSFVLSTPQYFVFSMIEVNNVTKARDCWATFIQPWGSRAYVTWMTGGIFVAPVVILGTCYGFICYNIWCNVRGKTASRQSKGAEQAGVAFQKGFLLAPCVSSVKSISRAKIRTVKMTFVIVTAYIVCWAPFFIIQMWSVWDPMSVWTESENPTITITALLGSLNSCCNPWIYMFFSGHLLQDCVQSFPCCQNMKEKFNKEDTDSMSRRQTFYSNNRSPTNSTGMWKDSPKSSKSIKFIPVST
Beta-1 adrenergic receptor, sequence (P08588 whole entry): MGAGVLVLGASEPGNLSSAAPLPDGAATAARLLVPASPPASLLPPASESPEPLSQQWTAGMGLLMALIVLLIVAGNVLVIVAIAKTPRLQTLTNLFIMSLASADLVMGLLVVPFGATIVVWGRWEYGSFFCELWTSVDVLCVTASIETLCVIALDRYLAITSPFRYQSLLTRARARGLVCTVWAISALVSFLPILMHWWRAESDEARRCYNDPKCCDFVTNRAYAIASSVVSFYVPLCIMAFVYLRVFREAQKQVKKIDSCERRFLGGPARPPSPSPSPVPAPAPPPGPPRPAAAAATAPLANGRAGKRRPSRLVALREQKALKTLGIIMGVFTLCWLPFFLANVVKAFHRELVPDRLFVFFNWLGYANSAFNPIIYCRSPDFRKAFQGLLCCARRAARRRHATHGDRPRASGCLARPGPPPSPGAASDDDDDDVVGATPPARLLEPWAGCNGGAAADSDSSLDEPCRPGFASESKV
Melanocortin receptor 4, sequence (P32245 whole entry): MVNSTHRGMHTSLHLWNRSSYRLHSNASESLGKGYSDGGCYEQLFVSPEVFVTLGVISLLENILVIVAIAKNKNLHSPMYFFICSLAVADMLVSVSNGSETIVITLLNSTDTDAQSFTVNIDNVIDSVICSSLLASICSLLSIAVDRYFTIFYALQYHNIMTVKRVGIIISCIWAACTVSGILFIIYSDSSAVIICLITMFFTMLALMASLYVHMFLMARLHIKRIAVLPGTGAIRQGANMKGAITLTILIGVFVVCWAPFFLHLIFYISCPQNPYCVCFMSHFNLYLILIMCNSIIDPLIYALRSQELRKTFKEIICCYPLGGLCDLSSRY
Mu-type opioid receptor, sequence (P35372 whole entry): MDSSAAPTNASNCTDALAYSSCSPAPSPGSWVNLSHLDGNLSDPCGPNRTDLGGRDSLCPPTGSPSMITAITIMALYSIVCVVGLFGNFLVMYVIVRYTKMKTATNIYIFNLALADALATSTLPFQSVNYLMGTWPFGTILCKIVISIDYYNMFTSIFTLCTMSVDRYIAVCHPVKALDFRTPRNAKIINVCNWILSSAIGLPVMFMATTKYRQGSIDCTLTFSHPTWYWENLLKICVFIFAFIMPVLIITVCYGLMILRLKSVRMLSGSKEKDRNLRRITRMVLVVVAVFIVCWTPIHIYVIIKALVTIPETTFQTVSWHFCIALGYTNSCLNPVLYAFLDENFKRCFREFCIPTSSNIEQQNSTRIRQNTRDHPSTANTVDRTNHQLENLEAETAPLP
Gamma-aminobutyric acid receptor subunit alpha-1, sequence (P62813 whole entry): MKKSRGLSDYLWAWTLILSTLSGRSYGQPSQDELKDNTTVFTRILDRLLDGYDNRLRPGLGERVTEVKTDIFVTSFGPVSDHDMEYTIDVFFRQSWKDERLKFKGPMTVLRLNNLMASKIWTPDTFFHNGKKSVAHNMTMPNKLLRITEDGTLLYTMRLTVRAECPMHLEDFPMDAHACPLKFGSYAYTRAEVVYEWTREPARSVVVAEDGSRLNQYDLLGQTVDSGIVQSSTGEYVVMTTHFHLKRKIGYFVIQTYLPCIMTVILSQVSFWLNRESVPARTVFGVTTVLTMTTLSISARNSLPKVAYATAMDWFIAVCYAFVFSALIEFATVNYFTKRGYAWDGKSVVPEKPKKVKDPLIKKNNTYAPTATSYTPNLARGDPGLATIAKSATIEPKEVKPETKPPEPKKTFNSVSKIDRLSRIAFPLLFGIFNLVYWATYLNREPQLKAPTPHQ

Structure (SMILES)	AC50 [1] [µM]	AC50 [2] [µM]	AC50 (Melanocortin receptor 4) [µM]	AC50 [3] [µM]	AC50 [4] [µM]	AC50 (Adenosine receptor A3) [µM]	AC50 (Vasopressin V1a receptor) [µM]	AC50 (Adenosine receptor A1) [µM]	AC50 [5] [µM]	AC50 (Cannabinoid receptor 1) [µM]	AC50 (Mu-type opioid receptor) [µM]
C[C@]1(O)CC[C@H]2[C@@H]3CCC4=CC(=O)CC[C@]4(C)[C@@]3(F)[C@@H](O)C[C@@]21C [FLUOXYMESTERONE]	> 10	> 10	> 10	> 10	> 10	> 10	> 10	> 10	> 30	> 10	> 30
CCCC(=O)O[C@]1(C(=O)CO)CC[C@H]2[C@@H]3CCC4=CC(=O)CC[C@]4(C)[C@H]3[C@@H](O)C[C@@]21C [HYDROCORTISONE BUTYRATE]	> 10	> 10	> 10	> 10	> 10	> 10	> 10	> 10	> 10	> 10	> 30
CC(C)(C)c1cc(C(C)(C)C)c(NC(=O)c2c[nH]c3ccccc3c2=O)cc1O [IVACAFTOR]	> 10	> 10	25.6	> 10	> 30	2.3	> 30	> 30	> 10	> 10	> 30
Cc1cccc(C(C)c2cnc[nH]2)c1C (stereo unspecified) [MEDETOMIDINE]	> 30	> 10	> 30	> 10	> 30	> 30	> 30	> 30	0.11	> 30	> 30
C[C@H](N)[C@H](O)c1cccc(O)c1 [METARAMINOL]	14.3	> 10	> 10	> 10	> 10	> 10	> 10	> 10	30	> 10	> 30
O=C(O)[C@H](CC(=O)N1C[C@H]2CCCC[C@H]2C1)Cc1ccccc1 [MITIGLINIDE]	> 10	> 10	> 10	> 10	> 10	> 10	> 10	> 10	> 10	> 10	> 30
CCCN(CCC)C(=O)C(CCC(=O)O)NC(=O)c1ccccc1 (stereo unspecified) [PROGLUMIDE]	> 30	> 10	> 30	> 10	> 30	> 30	> 30	> 30	> 30	> 10	> 30
C#C[C@]1(O)CC[C@H]2[C@@H]3CCc4cc(OC5CCCC5)ccc4[C@H]3CC[C@@]21C [QUINESTROL]	> 10	> 10	> 10	> 10	> 10	> 10	> 10	> 10	> 10	> 10	> 30
C=CCC1(C(C)CC)C(=O)NC(=O)NC1=O (stereo unspecified) [TALBUTAL]	> 10	> 10	> 10	> 10	> 10	> 10	> 10	> 10	> 10	> 10	> 30
CN1C(=O)C(O)N=C(c2ccccc2)c2cc(Cl)ccc21 (stereo unspecified) [TEMAZEPAM]	> 10	> 10	> 30	0.044	> 30	> 30	> 10	> 30	> 10	> 10	> 30
C[C@H](CSC(=O)c1ccccc1)C(=O)N1C[C@@H](Sc2ccccc2)C[C@H]1C(=O)O [ZOFENOPRIL]	> 10	> 10	> 10	> 10	> 10	> 10	> 10	> 10	> 10	> 10	> 30
